Common to all, as to assay type: biochemical
One assay deals with T1, JAK1 (Homo sapiens, UniProt P23458).
T1 construct: JAK1 (aa 850-1154) and TYK2 (aa 871-1187) are expressed with an N-terminally fused GST-tag; GST (N); purchased Carna Biosciences, Inc; host or cells: baculovirus expression system
Briefly: JAK kinase assay (HTRF, phosphorylation of synthetic peptide), JAK1. The note with it: catalytic domain, ATP at Km (7 μM); read-out: JAK1 kinase inhibitory activity (EC50). On the procedure:
(§1) Human baculovirus-expressed JAK1, 2, 3 and TYK2 were purchased from Carna Biosciences, Inc. All four purified enzymes contain only the catalytic domain. JAK1 (aa 850-1154) and TYK2 (aa 871-1187) are expressed with an N-terminally fused GST-tag, and JAK2 and JAK3 with an N-terminally fused His-tag.
(§2) Inhibition of phosphorylation of a synthetic peptide was measured in an HTRF-based assay using the TK substrate-Biotin from the Cisbio HTRFKinEASE TK kit. First, 2 μl of TK solution (TK substrate-biotin in kinase buffer [1× enzymatic buffer from HTRFKinEASE TK kit, 1 mM DTT]) is added to a plate containing 1 μl prediluted compound (final assay concentration DMSO: 0.75%). Then, 5 μl kinase-ATP mix (prepared in kinase buffer) is added to the wells and the plates are incubated at RT for 20-30 min. For all four kinases a concentration of ATP that corresponded to the Km for ATP was used. The final concentrations of buffers, substrate, kinase and ATP were: JAK1: 50 mM Hepes buffer pH 7.0, 0.01% BSA, 10 mM MgCl2, 1 mM DTT, 7 μM ATP, 50 nM SEB, 1 μM TK Substrate-Biotin and 5 ng JAK1; JAK2: 50 mM Hepes buffer pH 7.0, 0.01% BSA, 5 mM MgCl2, 1 mM DTT, 4 μM ATP, 1 μM TK Substrate-Biotin and 0.1 ng JAK2; JAK3: 50 mM Hepes buffer pH 7.0, 0.01% BSA, 5 mM MgCl2, 1 mM DTT, 2 μM ATP, 1 μM TK Substrate-Biotin and 0.3 ng JAK3; TYK2: 50 mM Hepes buffer pH 7.0, 0.01% BSA, 5 mM MgCl2, 1 mM DTT, 13 μM ATP, 50 nM SEB, 1 μM TK Substrate-Biotin and 0.8 ng TYK2. Thereafter, the kinase reaction is stopped by adding 4 μl detection mix (final concentrations: 50 mM Hepes buffer pH 7.0, 0.01% BSA, 0.8 M KF, 20 mM EDTA, 42 nM Streptavidin-XL665 and 1:400 STK Ab Cryptate) and the plates are incubated overnight in the dark. The HTRF signal is read using an Envision plate reader.

The target of a further assay is T2, JAK2 (Homo sapiens, UniProt O60674).
T2 construct: All four purified enzymes contain only the catalytic domain; His (N); purchased Carna Biosciences, Inc; host or cells: baculovirus expression system
Kind of assay: JAK kinase assay (HTRF, phosphorylation of synthetic peptide), JAK2. The note with it: catalytic domain, ATP at Km (4 μM); read-out: JAK2 kinase inhibitory activity (EC50). On the procedure: as §1, §2
A general note: In TR-FRET formats the signal depends on donor and acceptor labels being close together.

The next assay has as its target T3, JAK3 (Homo sapiens, UniProt P52333).
T3 construct: All four purified enzymes contain only the catalytic domain; His (N); purchased Carna Biosciences, Inc; host or cells: baculovirus expression system
Briefly: JAK kinase assay (HTRF, phosphorylation of synthetic peptide), JAK3. The note with it: catalytic domain, ATP at Km (2 μM); read-out: JAK3 kinase inhibitory activity (EC50). On the procedure:
as §1, §2

A further assay concerns the target T4, TYK2 (Homo sapiens, UniProt P29597).
T4 construct: JAK1 (aa 850-1154) and TYK2 (aa 871-1187) are expressed with an N-terminally fused GST-tag; GST (N); purchased Carna Biosciences, Inc; host or cells: baculovirus expression system
T4 sequence (P29597 871-1187): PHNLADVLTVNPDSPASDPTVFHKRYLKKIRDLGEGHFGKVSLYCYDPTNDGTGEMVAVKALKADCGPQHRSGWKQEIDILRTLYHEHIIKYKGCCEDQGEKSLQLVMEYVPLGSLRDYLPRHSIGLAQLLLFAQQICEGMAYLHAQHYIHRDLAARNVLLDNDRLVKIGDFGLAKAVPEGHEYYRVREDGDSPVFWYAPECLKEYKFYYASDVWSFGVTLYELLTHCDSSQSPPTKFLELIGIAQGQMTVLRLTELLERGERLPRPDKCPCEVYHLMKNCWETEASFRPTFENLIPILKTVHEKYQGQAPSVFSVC
Briefly: JAK kinase assay (HTRF, phosphorylation of synthetic peptide), TYK2. The note with it: catalytic domain, ATP at Km (13 μM); read-out: TYK2 kinase inhibitory activity (EC50). As for the experimental part:
as §1, §2

Molecules are shown by their SMILES. Some results are limits rather than exact numbers.

T1 sequence (P23458 850-1154): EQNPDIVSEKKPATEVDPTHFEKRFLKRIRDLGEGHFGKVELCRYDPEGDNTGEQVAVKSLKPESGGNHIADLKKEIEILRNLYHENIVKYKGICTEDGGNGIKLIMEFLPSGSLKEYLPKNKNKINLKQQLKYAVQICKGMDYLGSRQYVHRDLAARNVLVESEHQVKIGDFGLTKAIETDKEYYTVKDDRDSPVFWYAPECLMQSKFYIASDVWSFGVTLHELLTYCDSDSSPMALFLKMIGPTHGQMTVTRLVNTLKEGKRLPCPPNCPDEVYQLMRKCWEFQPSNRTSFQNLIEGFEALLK
T3 sequence (P52333 822-1111 limits assumed): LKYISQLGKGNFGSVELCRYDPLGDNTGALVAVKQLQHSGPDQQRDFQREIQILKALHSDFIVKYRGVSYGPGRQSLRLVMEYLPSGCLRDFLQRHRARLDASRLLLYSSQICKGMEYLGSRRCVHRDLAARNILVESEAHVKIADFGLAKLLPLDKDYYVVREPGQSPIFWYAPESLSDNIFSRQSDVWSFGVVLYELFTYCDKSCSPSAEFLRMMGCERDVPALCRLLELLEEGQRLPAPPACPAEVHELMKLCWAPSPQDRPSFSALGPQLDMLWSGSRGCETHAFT
T2 sequence (O60674 849-1124 limits assumed): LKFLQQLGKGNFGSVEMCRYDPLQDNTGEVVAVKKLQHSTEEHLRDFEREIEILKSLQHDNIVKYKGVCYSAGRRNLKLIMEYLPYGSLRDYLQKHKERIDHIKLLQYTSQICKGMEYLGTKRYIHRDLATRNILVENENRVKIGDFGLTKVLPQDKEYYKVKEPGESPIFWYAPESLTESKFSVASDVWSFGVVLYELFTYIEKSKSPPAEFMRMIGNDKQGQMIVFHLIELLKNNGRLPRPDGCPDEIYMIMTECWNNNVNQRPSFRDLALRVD

As usually defined, the EC50 is the concentration at which the effect is half-maximal. Take `CN(CCOc1ccc(Cl)cc1)S(=O)(=O)N1CCN(c2ncnc3[nH]ccc23)CC12CC2` [Example 69, N-[2-(4-chlorophenoxy)ethyl]-N-methyl-5-(7H-pyrrolo[2,3-d]pyrimidin-4-yl)-5,8-diazaspiro[2.5]octane-8-sulfonamide]: the EC50 at JAK1 was under 100 nM; at JAK2 it was under 100 nM; on JAK3, 100 to 500 nM; on TYK2, over 500 nM.
As to `CCOC(=O)CN(CCc1ccccc1)S(=O)(=O)N1CCN(c2ncnc3[nH]ccc23)CC12CC2` [Example 46, {Phenethyl-[7-(7H-pyrrolo[2,3-d]pyrimidin-4-yl)-4,7-diaza-spiro[2.5]octane-4-sulfonyl]-amino}-acetic acid ethyl ester], the EC50 is under 100 nM on JAK1, under 100 nM on JAK2, 100 to 500 nM at JAK3 and over 500 nM at TYK2.
For the molecule `CN(CC1CCN(C(=O)CCO)CC1)S(=O)(=O)N1CCN(c2ncnc3[nH]ccc23)CC12CC2` [Example 151, N-[[1-(3-hydroxypropanoyl)-4-piperidyl]methyl]-N-methyl-5-(7H-pyrrolo[2,3-d]pyrimidin-4-yl)-5,8-diazaspiro[2.5]octane-8-sulfonamide], the EC50 at JAK1 was under 100 nM; on JAK2 it was under 100 nM; at JAK3 it was 100 to 500 nM; on TYK2, 100 to 500 nM.
For `CCCN(CCc1ccccc1)S(=O)(=O)N1CCN(c2ncnc3[nH]ccc23)CC12CC2` [Example 7, 7-(7H-Pyrrolo[2,3-d]pyrimidin-4-yl)-4,7-diaza-spiro[2.5]octane-4-sulfonic acid phenethyl-propyl-amide], the EC50 is under 100 nM at JAK1, under 100 nM on JAK2, 100 to 500 nM at JAK3 and over 500 nM on TYK2.
`CC#CCN(CCc1ccccc1)S(=O)(=O)N1CCN(c2ncnc3[nH]ccc23)CC12CC2` [Example 23, 7-(7H-Pyrrolo[2,3-d]pyrimidin-4-yl)-4,7-diaza-spiro[2.5]octane-4-sulfonic acid but-2-ynyl-phenethyl-amide]: the EC50 at JAK1 was under 100 nM; on JAK2, under 100 nM; on JAK3, 100 to 500 nM; at TYK2, over 500 nM.
For the molecule `CN(C[C@@H]1CC(F)(F)CN1S(=O)(=O)CC1CC1)S(=O)(=O)N1CCN(c2ncnc3[nH]ccc23)CC12CC2` [Example 164, N-[[(2S)-1-(cyclopropylmethylsulfonyl)-4,4-difluoro-pyrrolidin-2-yl]methyl]-N-methyl-5-(7H-pyrrolo[2,3-d]pyrimidin-4-yl)-5,8-diazaspiro[2.5]octane-8-sulfonamide], the concentration for a half-maximal effect (EC50) at JAK1, at JAK2, on JAK3 and on TYK2 was under 100 nM each time.
Turning to `CN(CC1CC(=O)C1)S(=O)(=O)N1CCN(c2ncnc3[nH]ccc23)CC12CC2` [Example 88, N-methyl-N-[(3-oxocyclobutyl)methyl]-5-(7H-pyrrolo[2,3-d]pyrimidin-4-yl)-5,8-diazaspiro[2.5]octane-8-sulfonamide], the EC50 is under 100 nM on JAK1, under 100 nM at JAK2, 100 to 500 nM on JAK3 and 100 to 500 nM at TYK2.
Regarding `CN(Cc1ccccc1F)S(=O)(=O)N1CCN(c2ncnc3[nH]ccc23)CC12CC2` [Example 77, N-[(2-fluorophenyl)methyl]-N-methyl-5-(7H-pyrrolo[2,3-d]pyrimidin-4-yl)-5,8-diazaspiro[2.5]octane-8-sulfonamide], the EC50 at JAK1 is under 100 nM; at JAK2, under 100 nM; at JAK3, 100 to 500 nM; at TYK2, 100 to 500 nM.
On to `CN(C[C@@H]1CC(F)(F)CN1C=O)S(=O)(=O)N1CCN(c2ncnc3[nH]ccc23)CC12CC2` [Example 157, N-[[(2S)-4,4-difluoro-1-formyl-pyrrolidin-2-yl]methyl]-N-methyl-5-(7H-pyrrolo[2,3-d]pyrimidin-4-yl)-5,8-diazaspiro[2.5]octane-8-sulfonamide], for which the EC50 on JAK1, on JAK2, on JAK3 and at TYK2 was under 100 nM in each case.
Turning to `CN(C(=O)CC1CCS(=O)(=O)C1)S(=O)(=O)N1CCN(c2ncnc3[nH]ccc23)CC12CC2` (stereo not drawn) [Example 138, 2-(1,1-dioxothiolan-3-yl)-N-methyl-N-[[5-(7H-pyrrolo[2,3-d]pyrimidin-4-yl)-5,8-diazaspiro[2.5]octan-8-yl]sulfonyl]acetamide], the EC50 at JAK1 was under 100 nM; at JAK2 it was under 100 nM; at JAK3, 100 to 500 nM; at TYK2, over 500 nM.
On to `CN(C)CCCN(C1CCC1)S(=O)(=O)N1CCN(c2ncnc3[nH]ccc23)CC12CC2` [Example 105, N-cyclobutyl-N-[3-(dimethylamino)propyl]-5-(7H-pyrrolo[2,3-d]pyrimidin-4-yl)-5,8-diazaspiro[2.5]octane-8-sulfonamide], for which the concentration giving a half-maximal response (EC50) at JAK1 was 100 to 500 nM; on JAK2, under 100 nM; at JAK3 it was over 500 nM; at TYK2 it was over 500 nM.
Consider `CN(Cc1ccccc1C#N)S(=O)(=O)N1CCN(c2ncnc3[nH]ccc23)CC12CC2` [Example 14, 7-(7H-Pyrrolo[2,3-d]pyrimidin-4-yl)-4,7-diaza-spiro[2.5]octane-4-sulfonic acid (2-cyano-benzyl)-methyl-amide], for which the EC50 on JAK1 is under 100 nM; on JAK2, under 100 nM; at JAK3, 100 to 500 nM; at TYK2 it was under 100 nM.
For `N#CCCN(C1CC1)S(=O)(=O)N1CCN(c2ncnc3[nH]ccc23)CC12CC2` [Example 41, 7-(7H-Pyrrolo[2,3-d]pyrimidin-4-yl)-4,7-diaza-spiro[2.5]octane-4-sulfonic acid (2-cyano-ethyl)-cyclopropyl-amide], the EC50 at JAK1, at JAK2 and on JAK3 was under 100 nM throughout.
Regarding `N#CCCCCN(CCc1ccccc1)S(=O)(=O)N1CCN(c2ncnc3[nH]ccc23)CC12CC2` [Example 20, 7-(7H-Pyrrolo[2,3-d]pyrimidin-4-yl)-4,7-diaza-spiro[2.5]octane-4-sulfonic acid (4-cyano-butyl)-phenethyl-amide], the EC50 at JAK1, at JAK2 and at JAK3 was under 100 nM each time.
`N#CCCCN(CCc1ccccc1)S(=O)(=O)N1CCN(c2ncnc3[nH]ccc23)CC12CC2` [Example 33, 7-(7H-Pyrrolo[2,3-d]pyrimidin-4-yl)-4,7-diaza-spiro[2.5]octane-4-sulfonic acid (3-cyano-propyl)-phenethyl-amide]: the half-maximal effective concentration (EC50) at JAK1, on JAK2 and on JAK3 was under 100 nM each time.
On to `CN(Cc1ccc(C(F)(F)F)cc1)S(=O)(=O)N1CCN(c2ncnc3[nH]ccc23)CC12CC2` [Example 81, N-methyl-5-(7H-pyrrolo[2,3-d]pyrimidin-4-yl)-N-[[4-(trifluoromethyl)phenyl]methyl]-5,8-diazaspiro[2.5]octane-8-sulfonamide], for which the values for the EC50 on JAK1, at JAK2 and on TYK2 were under 100 nM, under 100 nM and over 500 nM, respectively.
With `O=S(=O)(NCCO)N1CCN(c2ncnc3[nH]ccc23)CC12CC2` [Example 53, 7-(7H-Pyrrolo[2,3-d]pyrimidin-4-yl)-4,7-diaza-spiro[2.5]octane-4-sulfonic acid (2-hydroxy-ethyl)-amide], the EC50 on JAK1, at JAK2 and on JAK3 was under 100 nM throughout.
